Reference: US8765677B2 (priority 2009, dated 2014)
“Also recorded” adds a separate entry of the source. Where a SMILES comes first, the peptide text is derived from it.

How the values were obtained:
N-type VGCCs = N-type VGCCs (Rattus norvegicus, UniProt Q02294); test: biochemical; assay type: binding
[1] = system: native VGCCs in DRG sensory neurons; assay type: cell-based, rat; conditions: for maximum inhibition of inward Ba2+ current: 0.1 µM
[2] = system: excitatory synaptic transmission between primary afferents and dorsal horn superficial lamina neurons; assay type: cell-based, rat
[3] = system: nerve injury model of neuropathic pain; conditions: rat, in vivo
[4] = system: mice with CFA-induced mechanical allodynia; conditions: mouse, in vivo, sc
Sprague-Dawley rats = conditions: rat, in vivo
[5] = system: low-voltage-activated T-type VGCC in DRG neurons; assay type: cell-based, rat
[6] = molecular target: recombinant N-type (Cav2.2) VGCCs α1B-b/α2δ1/β3 (Rattus norvegicus, UniProt Q02294); test: cell-based; assay type: cell-based
recombinant N-type (Cav2.2) VGCCs α1B-b/α2δ1/β3, sequence (Q02294 whole entry, looked up): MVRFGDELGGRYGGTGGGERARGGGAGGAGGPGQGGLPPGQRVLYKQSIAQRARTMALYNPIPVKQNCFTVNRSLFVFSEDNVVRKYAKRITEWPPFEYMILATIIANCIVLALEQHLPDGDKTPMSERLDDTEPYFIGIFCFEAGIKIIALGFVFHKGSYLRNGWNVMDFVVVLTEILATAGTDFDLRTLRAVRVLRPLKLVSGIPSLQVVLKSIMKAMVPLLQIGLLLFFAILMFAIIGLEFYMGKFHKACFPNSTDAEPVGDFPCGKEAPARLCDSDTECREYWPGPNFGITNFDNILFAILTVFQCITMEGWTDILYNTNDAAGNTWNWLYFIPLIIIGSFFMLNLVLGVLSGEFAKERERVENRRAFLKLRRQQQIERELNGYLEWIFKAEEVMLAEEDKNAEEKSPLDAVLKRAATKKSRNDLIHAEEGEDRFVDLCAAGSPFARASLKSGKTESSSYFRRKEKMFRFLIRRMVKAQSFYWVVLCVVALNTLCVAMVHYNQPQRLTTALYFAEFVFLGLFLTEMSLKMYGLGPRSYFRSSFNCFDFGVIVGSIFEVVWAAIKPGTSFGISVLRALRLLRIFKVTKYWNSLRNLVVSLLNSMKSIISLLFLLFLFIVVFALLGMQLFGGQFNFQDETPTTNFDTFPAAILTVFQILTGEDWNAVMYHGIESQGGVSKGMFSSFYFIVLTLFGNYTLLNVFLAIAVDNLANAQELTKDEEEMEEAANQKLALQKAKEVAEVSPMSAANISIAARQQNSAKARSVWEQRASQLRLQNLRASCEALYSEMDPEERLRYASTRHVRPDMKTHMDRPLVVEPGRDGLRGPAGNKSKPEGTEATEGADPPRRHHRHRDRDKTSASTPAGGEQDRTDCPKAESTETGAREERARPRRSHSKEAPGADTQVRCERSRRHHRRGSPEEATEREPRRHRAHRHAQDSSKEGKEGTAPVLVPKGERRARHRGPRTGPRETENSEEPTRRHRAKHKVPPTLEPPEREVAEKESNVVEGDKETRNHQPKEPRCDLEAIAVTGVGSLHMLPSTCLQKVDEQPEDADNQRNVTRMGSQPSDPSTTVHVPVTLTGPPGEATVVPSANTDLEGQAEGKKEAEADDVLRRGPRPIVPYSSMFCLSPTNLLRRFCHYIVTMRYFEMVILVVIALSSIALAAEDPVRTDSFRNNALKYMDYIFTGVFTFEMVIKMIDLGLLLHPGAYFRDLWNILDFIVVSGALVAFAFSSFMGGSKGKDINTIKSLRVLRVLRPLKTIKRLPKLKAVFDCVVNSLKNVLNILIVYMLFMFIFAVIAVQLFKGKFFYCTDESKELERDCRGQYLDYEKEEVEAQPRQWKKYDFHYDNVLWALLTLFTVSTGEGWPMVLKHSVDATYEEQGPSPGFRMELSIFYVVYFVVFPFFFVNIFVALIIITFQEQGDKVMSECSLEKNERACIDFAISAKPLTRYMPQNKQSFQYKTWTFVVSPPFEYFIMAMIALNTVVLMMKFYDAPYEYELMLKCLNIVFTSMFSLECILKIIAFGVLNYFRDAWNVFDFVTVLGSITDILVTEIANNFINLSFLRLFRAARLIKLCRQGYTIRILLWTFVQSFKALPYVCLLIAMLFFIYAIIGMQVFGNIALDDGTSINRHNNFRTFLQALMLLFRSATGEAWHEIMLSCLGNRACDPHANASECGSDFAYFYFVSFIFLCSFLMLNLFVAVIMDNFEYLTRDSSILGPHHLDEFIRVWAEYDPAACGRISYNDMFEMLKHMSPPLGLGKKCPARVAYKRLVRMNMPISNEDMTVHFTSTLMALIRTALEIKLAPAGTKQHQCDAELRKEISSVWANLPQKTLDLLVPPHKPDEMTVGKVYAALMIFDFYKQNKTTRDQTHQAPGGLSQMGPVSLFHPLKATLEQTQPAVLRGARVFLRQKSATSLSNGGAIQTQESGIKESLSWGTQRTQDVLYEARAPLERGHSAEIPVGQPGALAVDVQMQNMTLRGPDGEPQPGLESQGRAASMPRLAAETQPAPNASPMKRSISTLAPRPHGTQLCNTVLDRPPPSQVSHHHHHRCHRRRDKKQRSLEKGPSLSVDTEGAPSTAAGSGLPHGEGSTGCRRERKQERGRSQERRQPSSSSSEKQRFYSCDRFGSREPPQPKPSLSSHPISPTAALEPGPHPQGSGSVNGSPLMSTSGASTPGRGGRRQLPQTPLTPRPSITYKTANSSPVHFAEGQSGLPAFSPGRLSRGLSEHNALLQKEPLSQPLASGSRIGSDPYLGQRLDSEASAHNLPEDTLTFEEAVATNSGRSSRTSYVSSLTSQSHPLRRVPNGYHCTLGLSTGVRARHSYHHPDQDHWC

[7] = molecular target: recombinant N-type (Cav2.2) VGCCs α1B-b/α2δ1/β2a (Rattus norvegicus, UniProt Q02294); assay type: cell-based
recombinant N-type (Cav2.2) VGCCs α1B-b/α2δ1/β2a, sequence (Q02294 whole entry, looked up): as above

[8] = molecular target: recombinant Cav1.2 α1C (L-type) channels (α/α2δ1/β3) (Oryctolagus cuniculus, UniProt P15381); assay type: cell-based, rabbit
[9] = molecular target: recombinant Cav1.3 α1D (L-type) channels (α/α2δ1/β3) (Rattus norvegicus, UniProt P27732); assay type: cell-based
[10] = molecular target: recombinant Cav2.3 α1E (R-type) channels (α/α2δ1/β3) (Rattus norvegicus, UniProt Q07652); assay type: cell-based
[11] = molecular target: recombinant Cav2.1 α1A (P/Q-type) channels (α/α2δ1/β3) (Oryctolagus cuniculus, UniProt P27884); test: cell-based; parameters: species or system rabbit
recombinant Cav2.1 α1A (P/Q-type) channels (α/α2δ1/β3), sequence (P27884 whole entry, looked up): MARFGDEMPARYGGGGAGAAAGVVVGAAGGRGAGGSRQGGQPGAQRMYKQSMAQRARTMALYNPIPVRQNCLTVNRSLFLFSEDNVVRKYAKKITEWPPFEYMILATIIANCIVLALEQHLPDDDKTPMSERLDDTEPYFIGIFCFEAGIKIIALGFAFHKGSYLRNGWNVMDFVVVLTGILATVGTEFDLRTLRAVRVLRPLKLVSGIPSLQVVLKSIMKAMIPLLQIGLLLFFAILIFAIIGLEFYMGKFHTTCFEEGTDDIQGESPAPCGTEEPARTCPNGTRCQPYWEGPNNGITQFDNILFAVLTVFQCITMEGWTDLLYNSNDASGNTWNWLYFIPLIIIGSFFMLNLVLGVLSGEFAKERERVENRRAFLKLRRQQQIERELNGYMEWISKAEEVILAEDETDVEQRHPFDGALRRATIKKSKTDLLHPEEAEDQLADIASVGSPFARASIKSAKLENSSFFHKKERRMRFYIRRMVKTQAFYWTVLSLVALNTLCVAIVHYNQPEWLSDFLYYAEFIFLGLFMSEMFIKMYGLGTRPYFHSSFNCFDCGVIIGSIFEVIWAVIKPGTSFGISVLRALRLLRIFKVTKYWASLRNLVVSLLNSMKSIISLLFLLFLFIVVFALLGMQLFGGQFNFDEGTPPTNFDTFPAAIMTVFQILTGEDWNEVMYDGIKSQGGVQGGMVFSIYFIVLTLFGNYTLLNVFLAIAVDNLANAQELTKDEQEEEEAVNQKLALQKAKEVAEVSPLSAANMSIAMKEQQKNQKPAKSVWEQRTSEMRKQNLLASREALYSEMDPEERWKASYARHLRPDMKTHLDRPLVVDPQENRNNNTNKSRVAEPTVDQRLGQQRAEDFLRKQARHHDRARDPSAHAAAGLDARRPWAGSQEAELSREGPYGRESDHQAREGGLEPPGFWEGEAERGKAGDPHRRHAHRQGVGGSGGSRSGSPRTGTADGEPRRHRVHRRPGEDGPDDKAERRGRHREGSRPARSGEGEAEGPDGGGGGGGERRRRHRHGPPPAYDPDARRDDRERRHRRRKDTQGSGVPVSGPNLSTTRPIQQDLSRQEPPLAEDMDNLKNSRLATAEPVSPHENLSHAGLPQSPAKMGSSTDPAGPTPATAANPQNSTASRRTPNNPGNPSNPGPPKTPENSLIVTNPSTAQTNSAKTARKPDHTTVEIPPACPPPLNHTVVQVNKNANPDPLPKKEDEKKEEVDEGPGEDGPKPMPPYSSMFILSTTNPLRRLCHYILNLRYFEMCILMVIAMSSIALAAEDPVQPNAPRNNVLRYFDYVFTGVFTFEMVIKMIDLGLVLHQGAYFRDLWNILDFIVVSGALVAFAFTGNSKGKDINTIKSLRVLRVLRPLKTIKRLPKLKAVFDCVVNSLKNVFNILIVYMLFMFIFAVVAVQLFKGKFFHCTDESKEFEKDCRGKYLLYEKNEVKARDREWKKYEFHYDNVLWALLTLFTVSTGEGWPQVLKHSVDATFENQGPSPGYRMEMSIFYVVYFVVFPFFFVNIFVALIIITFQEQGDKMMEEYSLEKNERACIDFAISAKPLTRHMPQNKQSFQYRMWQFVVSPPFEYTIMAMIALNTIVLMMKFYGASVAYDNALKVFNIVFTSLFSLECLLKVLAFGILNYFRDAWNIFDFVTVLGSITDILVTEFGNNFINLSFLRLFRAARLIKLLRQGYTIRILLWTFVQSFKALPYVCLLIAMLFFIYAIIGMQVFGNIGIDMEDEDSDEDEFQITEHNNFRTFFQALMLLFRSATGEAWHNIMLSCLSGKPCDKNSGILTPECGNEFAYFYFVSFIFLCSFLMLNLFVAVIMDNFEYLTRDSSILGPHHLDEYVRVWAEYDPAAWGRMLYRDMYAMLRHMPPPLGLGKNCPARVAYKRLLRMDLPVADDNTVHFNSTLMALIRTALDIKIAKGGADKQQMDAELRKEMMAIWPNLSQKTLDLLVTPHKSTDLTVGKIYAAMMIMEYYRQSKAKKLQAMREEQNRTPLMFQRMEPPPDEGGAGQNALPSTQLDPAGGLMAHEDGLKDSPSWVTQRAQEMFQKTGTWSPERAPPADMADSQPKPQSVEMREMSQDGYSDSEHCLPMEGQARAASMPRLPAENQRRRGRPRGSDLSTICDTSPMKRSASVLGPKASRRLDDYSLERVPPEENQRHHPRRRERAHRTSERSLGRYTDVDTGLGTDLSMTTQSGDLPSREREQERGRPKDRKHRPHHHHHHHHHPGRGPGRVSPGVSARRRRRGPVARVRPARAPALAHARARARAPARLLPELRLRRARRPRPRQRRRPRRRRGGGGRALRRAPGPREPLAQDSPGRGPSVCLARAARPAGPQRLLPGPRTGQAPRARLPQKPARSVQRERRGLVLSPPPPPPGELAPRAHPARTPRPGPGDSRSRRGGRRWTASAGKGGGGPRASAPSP

N-type VGCCs, sequence (Q02294 whole entry, looked up): as the sequence (Q02294 whole entry, looked up) above

Structure (SMILES)	displacement of 125I-GVIA binding (N-type VGCCs)	IC50 (N-type VGCCs; affinity) [nM]	IC50 (N-type VGCCs; pIC50) [nM]	maximum inhibition of inward Ba2+ current [1] [%]	EPSC amplitude recovered after washout [2]	reduction of evoked monosynaptic EPSC amplitude [2] [%]	relief of mechanical allodynia [3]	reversal of incapacitance [4]	side effects (shakes, tail twitching, serpentine tail movements) (Sprague-Dawley rats)	effect on P/Q- and L-type VGCC current components [1]	effect on T-type current [5]	Hill slope [6]	Hill slope [7]	effect on Cav1.2 channels [8]	effect on Cav1.3 channels [9]	effect on Cav2.3 channels [10]	effect on Cav2.1 channels [11]
C[C@@H]1NC(=O)CNC(=O)[C@H](CCCCN)NC(=O)CNC(=O)[C@H](CCCCN)NC(=O)[C@@H](N)CSSC[C@@H]2NC(=O)[C@@H]3CSSC[C@@H](C(N)=O)NC(=O)[C@H](CCCNC(=N)N)NC(=O)CNC(=O)[C@H](CO)NC(=O)[C@H](CCCNC(=N)N)NC(=O)[C@H](CSSC[C@H](NC(=O)[C@H](CO)NC1=O)C(=O)N[C@@H](CCCNC(=N)N)C(=O)N[C@@H](CCCNC(=N)N)C(=O)N[C@@H]([C@@H](C)O)C(=O)N[C@@H](CO)C(=O)N[C@@H](Cc1ccc(O)cc1)C(=O)N[C@@H](CC(=O)O)C(=O)N3)NC(=O)[C@H](CO)NC(=O)CNC(=O)[C@H]([C@@H](C)O)NC2=O [CVIE, CKGKGASCRRTSYDCCTGSCRSGRC]	fully displaced	0.037	0.02	~50	78±7 % of control	67±5	completely relieves mechanical allodynia; also recorded: relieved mechanical allodynia	highly significant reversal of incapacitance; also recorded: subsided	substantially decreased side effects compared to CVID								
CC(C)C[C@@H]1NC(=O)[C@H](CCCNC(=N)N)NC(=O)[C@@H]2CSSC[C@@H]3NC(=O)[C@H](CO)NC(=O)[C@H](C)NC(=O)CNC(=O)[C@H](CCCCN)NC(=O)CNC(=O)[C@H](CCCCN)NC(=O)[C@@H](N)CSSC[C@H](NC(=O)[C@H](CSSC[C@@H](C(N)=O)NC(=O)[C@H](CCCNC(=N)N)NC(=O)CNC1=O)NC(=O)[C@H](CC(=O)O)NC(=O)[C@H](Cc1ccc(O)cc1)NC(=O)[C@H](CO)NC(=O)[C@H]([C@@H](C)O)NC(=O)[C@H](CCCNC(=N)N)NC(=O)[C@H](CCCNC(=N)N)NC3=O)C(=O)N[C@@H]([C@@H](C)O)C(=O)NCC(=O)N[C@@H](CO)C(=O)N2 [CVIF] (HELM PEPTIDE1{C.K.G.K.G.A.S.C.R.R.T.S.Y.D.C.C.T.G.S.C.R.L.G.R.C.[am]}$PEPTIDE1,PEPTIDE1,1:R3-16:R3|PEPTIDE1,PEPTIDE1,8:R3-20:R3|PEPTIDE1,PEPTIDE1,15:R3-25:R3$$$V2.0)	fully displaced			~50	73±10 % of control	61±7	completely relieves mechanical allodynia; also recorded: relieved mechanical allodynia	significant reversal of incapacitance; also recorded: subsided	substantially decreased side effects compared to CVID	does not affect	not affected						
C[C@@H](O)[C@@H]1NC(=O)[C@H](Cc2ccc(O)cc2)NC(=O)[C@@H]2C[C@@H](O)CN2C(=O)[C@H](CC(N)=O)NC(=O)[C@@H]2CSSC[C@@H]3NC(=O)[C@H](CO)NC(=O)[C@H](CO)NC(=O)CNC(=O)[C@@H]4C[C@@H](O)CN4C(=O)[C@H](CO)NC(=O)[C@H](CCCCN)NC(=O)[C@@H](N)CSSC[C@H](NC(=O)[C@H](CSSC[C@@H](C(=O)N[C@@H](Cc4ccc(O)cc4)C(N)=O)NC(=O)[C@H](CCCN=C(N)N)NC(=O)[C@H](CCCCN)NC1=O)NC(=O)[C@H](CC(N)=O)NC(=O)[C@H](Cc1ccc(O)cc1)NC(=O)[C@H](CO)NC(=O)[C@H]([C@@H](C)O)NC(=O)[C@@H]1C[C@@H](O)CN1C(=O)[C@H](CO)NC3=O)C(=O)N[C@@H](CCCN=C(N)N)C(=O)N[C@@H](CO)C(=O)N2 [GVIA, reference compound]		0.024	0.0251														
CC(C)C[C@@H]1NC(=O)[C@H](CCCNC(=N)N)NC(=O)[C@@H]2CSSC[C@@H]3NC(=O)[C@H](CO)NC(=O)[C@H](C)NC(=O)CNC(=O)[C@H](CCCCN)NC(=O)CNC(=O)[C@H](CCCCN)NC(=O)[C@@H](N)CSSC[C@H](NC(=O)[C@H](CSSC[C@@H](C(N)=O)NC(=O)[C@H](CCCNC(=N)N)NC(=O)CNC1=O)NC(=O)[C@H](CC(=O)O)NC(=O)[C@H](Cc1ccc(O)cc1)NC(=O)[C@H](CO)NC(=O)[C@H]([C@@H](C)O)NC(=O)[C@H](CCCCN)NC(=O)[C@H](CCCNC(=N)N)NC3=O)C(=O)N[C@@H]([C@@H](C)O)C(=O)NCC(=O)N[C@@H](CO)C(=O)N2 [[R10K]CVIF] (HELM PEPTIDE1{C.K.G.K.G.A.S.C.R.K.T.S.Y.D.C.C.T.G.S.C.R.L.G.R.C.[am]}$PEPTIDE1,PEPTIDE1,1:R3-16:R3|PEPTIDE1,PEPTIDE1,8:R3-20:R3|PEPTIDE1,PEPTIDE1,15:R3-25:R3$$$V2.0)							relieved mechanical allodynia	highly significant reversal of incapacitance; also recorded: sustained	substantially decreased side effects compared to CVID			0.65±0.04	0.86±0.04	neither [R10K]CVIE or [R10K]CVIF had any effect	neither [R10K]CVIE or [R10K]CVIF had any effect	neither [R10K]CVIE or [R10K]CVIF had any effect	neither [R10K]CVIE or [R10K]CVIF had any effect
